For the test, the target named is T1, hCRTH2 (Homo sapiens, UniProt Q9Y5Y4).
T1 construct: expressed in transfected cells; host or cells: HEK cell line expressing hCRTH2 (HEK-hCRTH2); membranes
T1 sequence (Q9Y5Y4 1-395): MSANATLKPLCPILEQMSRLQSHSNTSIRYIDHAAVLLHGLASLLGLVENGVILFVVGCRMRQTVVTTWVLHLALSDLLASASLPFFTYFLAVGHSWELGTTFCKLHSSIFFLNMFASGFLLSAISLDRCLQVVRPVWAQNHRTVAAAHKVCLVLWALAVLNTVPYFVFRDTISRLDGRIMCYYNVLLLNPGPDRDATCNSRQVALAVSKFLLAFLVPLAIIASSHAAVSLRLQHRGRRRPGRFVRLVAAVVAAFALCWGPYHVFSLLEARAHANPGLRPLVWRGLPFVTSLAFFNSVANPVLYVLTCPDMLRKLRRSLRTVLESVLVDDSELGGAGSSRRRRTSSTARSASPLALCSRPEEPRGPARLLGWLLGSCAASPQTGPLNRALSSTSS
The test is described as follows: Radioligand binding assay ([3H]PGD2 competition, membranes from HEK-hCRTH2 cell line). Conditions: 0.7 nM [3H]PGD2, membrane protein from HEK-hCRTH2 cell line, 60 min at room temperature; values given as ranges. The method, then:
Radioligand Binding Assay.
Radioligand binding assays were performed at room temperature in 10 mM HEPES/KOH pH 7.4, 1 mM EDTA containing 10 mM MnCl2 and 0.7 nM [^3H]PGD2 (NEN, 171 Ci mmol^−1), in a final volume of 0.2 ml. Competing ligands were diluted in dimethylsulfoxide (Me2SO) that was kept constant at 1% (v/v) of the final incubation volume. The reaction was initiated by the addition of 8-20 μg of membrane protein prepared from a HEK-hCRTH2 cell line. Total and non-specific binding were determined in the absence and the presence of 10 μM PGD2, respectively. Under these conditions, specific binding (total minus non-specific) of the radioligand to the receptor reached equilibrium within 50 min and was stable up to 180 min. The reaction was routinely conducted for 60 min at room temperature and terminated by rapid filtration through prewetted Unifilters GF/C (Packard), using a Tomtec MachIII semi-automated harvester (for HEK-hCRTH2). The filters were then washed with 4 ml of the same buffer and residual radioligand bound to the filter was determined by liquid scintillation counting following equilibration in 25 μl Ultima Gold F™ (Unifilter) (Packard). The Ki (in nM) values for representative compounds of the present invention are as follows: ≦5: Examples 3.1, 5.1, 6.1, 7.1, 8.1/8A, 9.1, 26, 27.1, 28.1, 29.1, 30, 31.1, 31.3, 32.1, 32.4, 33.1, 34.1, 36.1, 38.1, 39, 40, 41; >5 and ≦10: Examples, 4, 5.3, 29.2; >10 and ≦50: Examples 1, 10, 14, 21, 22, 25, 31.4, 32.3, 35, 36.2, 37; >50 and ≦100: Examples 2, 5.4, 6.2, 27.2, 28.2; >100: Examples 3.2, 5.2, 7.2, 8.2, 9.2, 11, 12, 13, 15, 16, 17, 18, 19, 20, 23, 24, 31.2, 32.2, 33.2, 34.2, 38.2.

The term Ki denotes the equilibrium dissociation constant of an inhibitor or competing ligand from its target.

Bounds are passed on as bounds.

Take `Cc1c(Cc2ccc(F)cc2)nnn1C1CCc2c(CC(=O)O)c3cccc(F)c3n2C1` (racemic) [Example 37, {4-Fluoro-7-[4-(4-fluorobenzyl)-5-methyl-1H-1,2,3-triazol-1-yl]-6,7,8,9-tetrahydropyrido[1,2-α]indol-10-yl}acetic acid]: the Ki was in the range of 10 to 50 nM.

Consider `O=C(O)Cc1c2n(c3ccccc13)CC(n1nncc1Cc1ccccc1)CC2` (single isomer, unassigned) [Example 3.1, [7-(5-Benzyl-[1,2,3]triazol-1-yl)-6,7,8,9-tetrahydropyrido[1,2-α]indol-10-yl]-acetic acid], for which the Ki was at most 5 nM. Take `O=C(O)Cc1c2n(c3ccccc13)CC(n1nncc1Cc1ccccc1)CC2` (single isomer, unassigned) [Example 3.2, [7-(5-Benzyl-[1,2,3]triazol-1-yl)-6,7,8,9-tetrahydropyrido[1,2-α]indol-10-yl]-acetic acid]: the Ki was over 100 nM.

As for `CC(O)(c1ccc(F)cc1)c1cnnn1C1CCc2c(CC(=O)O)c3ccccc3n2C1` (single isomer, unassigned) [Example 5.1, (7-{5-[1-(4-Fluoro-phenyl)-1-hydroxy-ethyl]-[1,2,3]triazol-1-yl}-6,7,8,9-tetrahydropyrido[1,2-α]indol-10-yl)-acetic acid], the Ki is at most 5 nM. For the compound `CC(O)(c1ccc(F)cc1)c1cnnn1C1CCc2c(CC(=O)O)c3ccccc3n2C1` (single isomer, unassigned) [Example 5.2, (7-{5-[1-(4-Fluoro-phenyl)-1-hydroxy-ethyl]-[1,2,3]triazol-1-yl}-6,7,8,9-tetrahydropyrido[1,2-α]indol-10-yl)-acetic acid], the Ki is over 100 nM. The result for `CC(O)(c1ccc(F)cc1)c1cnnn1C1CCc2c(CC(=O)O)c3ccccc3n2C1` (single isomer, unassigned) [Example 5.3, (7-{5-[1-(4-Fluoro-phenyl)-1-hydroxy-ethyl]-[1,2,3]triazol-1-yl}-6,7,8,9-tetrahydropyrido[1,2-α]indol-10-yl)-acetic acid] reads 5 to 10 nM; that for `CC(O)(c1ccc(F)cc1)c1cnnn1C1CCc2c(CC(=O)O)c3ccccc3n2C1` (single isomer, unassigned) [Example 5.4, (7-{5-[1-(4-Fluoro-phenyl)-1-hydroxy-ethyl]-[1,2,3]triazol-1-yl}-6,7,8,9-tetrahydropyrido[1,2-α]indol-10-yl)-acetic acid], 50 to 100 nM. `O=C(O)Cc1c2n(c3ccccc13)CC(n1nncc1C1(c3ccccc3)CCCC1)CC2` (single isomer, unassigned) [Example 6.1, {7-[5-(1-Phenyl-cyclopentyl)-[1,2,3]triazol-1-yl]-6,7,8,9-tetrahydropyrido[1,2-α]indol-10-yl}-acetic acid] yielded a Ki of at most 5 nM. For `O=C(O)Cc1c2n(c3ccccc13)CC(n1nncc1C1(c3ccccc3)CCCC1)CC2` (single isomer, unassigned) [Example 6.2, {7-[5-(1-Phenyl-cyclopentyl)-[1,2,3]triazol-1-yl]-6,7,8,9-tetrahydropyrido[1,2-α]indol-10-yl}-acetic acid] the value was 50 to 100 nM; for `O=C(O)Cc1c2n(c3c(F)cccc13)CC(n1nncc1Cc1ccccc1)CC2` (single isomer, unassigned) [Example 7.1, [7-(5-Benzyl-[1,2,3]triazol-1-yl)-4-fluoro-6,7,8,9-tetrahydropyrido[1,2-α]indol-10-yl]-acetic acid], at most 5 nM. For `O=C(O)Cc1c2n(c3c(F)cccc13)CC(n1nncc1Cc1ccccc1)CC2` (single isomer, unassigned) [Example 7.2, [7-(5-Benzyl-[1,2,3]triazol-1-yl)-4-fluoro-6,7,8,9-tetrahydropyrido[1,2-α]indol-10-yl]-acetic acid] the value was over 100 nM; for `O=C(O)Cc1c2n(c3c(F)cccc13)CC(n1nncc1Cc1ccc(F)cc1)CC2` (single isomer, unassigned) [Example 8.2, {4-Fluoro-7-[5-(4-fluoro-benzyl)-[1,2,3]triazol-1-yl]-6,7,8,9-tetrahydropyrido[1,2-α]indol-10-yl}-acetic acid], over 100 nM. Consider `O=C(O)Cn1c2c(c3ccccc31)CC(n1nncc1Cc1ccccc1)CC2` (single isomer, unassigned) [Example 9.1, [3-(5-Benzyl-[1,2,3]triazol-1-yl)-1,2,3,4-tetrahydro-carbazol-9-yl]-acetic acid], for which the Ki is at most 5 nM.

With `O=C(O)Cn1c2c(c3ccccc31)CC(n1nncc1Cc1ccccc1)CC2` (single isomer, unassigned) [Example 9.2, [3-(5-Benzyl-[1,2,3]triazol-1-yl)-1,2,3,4-tetrahydro-carbazol-9-yl]-acetic acid], the Ki is over 100 nM. For `O=C(O)Cc1c2n(c3ccccc13)CC(n1nncc1C(O)(c1ccc(F)cc1)c1ccc(F)cc1)CC2` (single isomer, unassigned) [Example 27.1] the value was at most 5 nM; for `O=C(O)Cc1c2n(c3ccccc13)CC(n1nncc1C(O)(c1ccc(F)cc1)c1ccc(F)cc1)CC2` (single isomer, unassigned) [Example 27.2], 50 to 100 nM. The result for `O=C(O)Cc1c2n(c3ccccc13)CC(n1nncc1Cc1ccc(F)cc1)CC2` (single isomer, unassigned) [Example 28.1] reads at most 5 nM. As to `O=C(O)Cc1c2n(c3ccccc13)CC(n1nncc1Cc1ccc(F)cc1)CC2` (single isomer, unassigned) [Example 28.2], the Ki was in the range of 50 to 100 nM. The result for `CC(c1ccccc1)c1cnnn1C1CCc2c(CC(=O)O)c3ccccc3n2C1` (single isomer, unassigned) [Example 29.1] reads at most 5 nM; that for `CC(c1ccccc1)c1cnnn1[C@@H]1CCc2c(CC(=O)O)c3ccccc3n2C1` (single isomer, unassigned) [Example 29.2], 5 to 10 nM; that for `CC(O)(c1ccc(F)cc1)c1cnnn1C1CCc2c(CC(=O)O)c3cccc(F)c3n2C1` (single isomer, unassigned) [Example 31.1], at most 5 nM. `CC(O)(c1ccc(F)cc1)c1cnnn1C1CCc2c(CC(=O)O)c3cccc(F)c3n2C1` (single isomer, unassigned) [Example 31.2] returned a Ki of over 100 nM. Take `CC(O)(c1ccc(F)cc1)c1cnnn1C1CCc2c(CC(=O)O)c3cccc(F)c3n2C1` (single isomer, unassigned) [Example 31.3]: the Ki is at most 5 nM. The result for `CC(O)(c1ccc(F)cc1)c1cnnn1C1CCc2c(CC(=O)O)c3cccc(F)c3n2C1` (single isomer, unassigned) [Example 31.4] reads 10 to 50 nM; that for `CC(c1ccccc1)c1cnnn1C1CCc2c(CC(=O)O)c3cccc(F)c3n2C1` (single isomer, unassigned) [Example 32.1, {4-Fluoro-7-[5-(1-phenyl-ethyl)-[1,2,3]triazol-1-yl]-6,7,8,9-tetrahydropyrido[1,2-α]indol-10-yl}-acetic acid], at most 5 nM. With `CC(c1ccccc1)c1cnnn1C1CCc2c(CC(=O)O)c3cccc(F)c3n2C1` (single isomer, unassigned) [Example 32.2, {4-Fluoro-7-[5-(1-phenyl-ethyl)-[1,2,3]triazol-1-yl]-6,7,8,9-tetrahydropyrido[1,2-α]indol-10-yl}-acetic acid], the Ki was over 100 nM. `CC(c1ccccc1)c1cnnn1C1CCc2c(CC(=O)O)c3cccc(F)c3n2C1` (single isomer, unassigned) [Example 32.3, {4-Fluoro-7-[5-(1-phenyl-ethyl)-[1,2,3]triazol-1-yl]-6,7,8,9-tetrahydropyrido[1,2-α]indol-10-yl}-acetic acid] yielded a Ki of 10 to 50 nM. `CC(c1ccccc1)c1cnnn1C1CCc2c(CC(=O)O)c3cccc(F)c3n2C1` (single isomer, unassigned) [Example 32.4, {4-Fluoro-7-[5-(1-phenyl-ethyl)-[1,2,3]triazol-1-yl]-6,7,8,9-tetrahydropyrido[1,2-α]indol-10-yl}-acetic acid] displayed a Ki of at most 5 nM.

The values are drawn from patent US9023864B2, “Indole derivatives as CRTH2 receptor antagonists” (Merck Sharp & Dohme Corp., priority 2009, dated 2015).
